In publication PMC8151276, “An Integrated Approach toward NanoBRET Tracers for Analysis of GPCR Ligand Engagement” (Molecules, 2021):

Columns and labels:
OPRK1 = target: T1, OPRK1 (Homo sapiens, UniProt P41145); assay: NanoBRET screen HiBiT-OPRK1 in HEK293; format: binding; conditions: OPRK1
T1 construct: purchased Promega (in-house HiBiT-GPCR construct library, NanoBRET)
Procedure: (§1) Each tracer candidate was screened across the entire library of HiBiT-GPCR constructs using NanoBRET as the detection modality. As depicted in Figure 4A, the specificity of interactions was evaluated through decrease in BRET due to competitive displacement of a bound tracer by excess parental compound. Each tracer was analyzed for binding to each HiBiT-GPCR fusion in the absence and in the presence of competing parental compound. Briefly, HEK293 cells were transfected with HiBiT-GPCR constructs diluted into promoterless DNA to reduce expression and maximize translocation to the cell surface. Each tracer candidate was then screened at concentrations of 1 μM and 0.1 μM across cells expressing these fusions. Cells were treated for 1.5 h with tracer either alone or in the presence of 20 μM competing parental compound (i.e., control). BRET was measured upon addition of purified LgBiT and subsequent complementation with HiBiT genetically fused to a GPCR. The specificity of interactions was assessed through a decrease in BRET signal due to competitive displacement of the bound tracer. To further gauge the robustness of these interactions, the fold response over the control (i.e., BRETtracer/BRETcontrol) was calculated. We chose a 1.5-fold response, which translates to ≥7-fold signal over noise as the minimal threshold required to score an interaction as positive. […]. Below we highlight the screening results obtained for our exemplary fluorescent tracers based on Clozapine, Amitriptyline and AZD1283.
(§2) HiBiT-GPCR DNA constructs were diluted in 10 mM Tris pH 8 to a final concentration of 0.01 μg/μL, arrayed in 96-well plates and stored at −20 °C. For transfection, HEK293 cells were suspended in Opti-MEM (without phenol red) supplemented with 2% fetal bovine serum (Seradigm) and 100 units/mL penicillin–streptomycin (Gibco) at a final concentration of 220,000 cells/mL and dispensed into white 96-well plates at 90 μL/well. Subsequent transfections and screens were carried using an Agilent Bravo Automated Liquid Handling Platform. First, the 96-well HiBiT DNA arrays were diluted 25-fold in Opti-MEM (without serum or phenol red) to a final concentration of 0.0004 μg/μL and 20 μL of the diluted DNAs were transferred into new 96-well plates. Next, promoterless carrier DNA (1 μg/μL) was diluted 25-fold (0.04 μg/μL) and then dispensed into the diluted arrays at 20 μL/well. Following brief mixing, Viafect transfection reagent (Promega) diluted 16-fold into Opti-MEM was dispensed into the plates at 40 μL/well. After mixing by pipetting, plates were incubated for 10 min on the pipetting station deck. The DNA-transfection reagent complexes were then added to plates containing cells. To facilitate the screen, 10 μL of DNA-transfection reagent complexes were added in duplicates to the top 4 and bottom 4 rows, resulting in two identical 48-well arrays per plate. Plates with transfected cells were incubated for 18–20 h at 37 °C/5% CO2. A screen of each tracer across the entire library using two different concentrations requires duplicate plates of transfected cells. Depending on the number of tracers being screened, transfections can be scaled up using the same ratios. The next day, for each tracer, four 20× screening solutions in tracer dilution buffer (Promega) were prepared: two duplicates at final concentration of 20 μM and two duplicates at a final concentration of 2 μM. A competing unmodified compound was added to one of each duplicate at a final concentration of 400 μM. The four resulting solutions were diluted 4-fold in Opti-MEM without serum or phenol red to generate 5× solutions (5 µM and 0.5 µM tracer +/− 100 μM competing compound). To screen the library, a BioTek MultiFlo FX liquid dispenser was used to dispense 22.5 µL of tracer solution to the top 4 rows and 22.5 µL tracer + competing compound solution to the 4 bottom rows. Plates were briefly mixed on an orbital shaker and incubated for 1.5 h at room temperature. […]

OPRL1 = target: T2, OPRL1 (Homo sapiens, UniProt P41146); assay: NanoBRET screen HiBiT-OPRL1 in HEK293; format: binding; conditions: OPRL1
T2 construct: purchased Promega (in-house HiBiT-GPCR construct library, NanoBRET)
T2 sequence (P41146 whole entry): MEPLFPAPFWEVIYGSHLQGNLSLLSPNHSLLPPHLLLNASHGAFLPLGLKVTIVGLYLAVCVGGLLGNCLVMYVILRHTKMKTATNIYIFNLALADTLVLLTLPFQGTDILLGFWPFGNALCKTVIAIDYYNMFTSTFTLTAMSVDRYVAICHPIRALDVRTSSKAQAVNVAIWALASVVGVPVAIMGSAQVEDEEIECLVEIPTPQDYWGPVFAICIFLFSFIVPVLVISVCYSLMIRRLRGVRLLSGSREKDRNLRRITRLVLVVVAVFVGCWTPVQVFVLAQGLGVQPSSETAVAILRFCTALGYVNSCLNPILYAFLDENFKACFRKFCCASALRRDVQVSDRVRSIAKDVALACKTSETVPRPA
Procedure: as §1, §2

T1 sequence (P41145 whole entry): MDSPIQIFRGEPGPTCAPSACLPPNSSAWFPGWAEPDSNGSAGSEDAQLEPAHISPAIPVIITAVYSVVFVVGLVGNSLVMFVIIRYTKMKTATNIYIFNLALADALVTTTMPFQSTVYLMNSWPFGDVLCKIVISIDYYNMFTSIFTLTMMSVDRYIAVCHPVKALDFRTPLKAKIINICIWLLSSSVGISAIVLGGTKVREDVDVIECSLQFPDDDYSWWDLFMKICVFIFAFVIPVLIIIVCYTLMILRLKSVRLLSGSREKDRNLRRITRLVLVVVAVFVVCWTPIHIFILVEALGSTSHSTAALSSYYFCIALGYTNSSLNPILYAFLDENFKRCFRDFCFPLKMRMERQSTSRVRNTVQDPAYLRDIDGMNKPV

Compound | NanoBRET Fold Response (OPRK1; tracer 0.1μM) | NanoBRET Fold Response (OPRK1; tracer 1μM) | NanoBRET Fold Response (OPRL1; tracer 0.1μM) | NanoBRET Fold Response (OPRL1; tracer 1μM) | other results
CN1CCN(C2=Nc3cc(Cl)ccc3N(CC(=O)NCCOCCOCCOCCOCCNC(=O)CCc3ccc4n3[B-](F)(F)[N+]3=C(c5ccc[nH]5)C=CC3=C4)c3ccccc32)CC1 [Clozapine-c-2-NB590] | – | – | – | – | NanoBRET Fold Response (OPRK1; 0.1μM tracer): 1.01; NanoBRET Fold Response (OPRK1; 1μM tracer): 0.90; NanoBRET Fold Response (OPRL1; 0.1μM tracer): 0.98; NanoBRET Fold Response (OPRL1; 1μM tracer): 0.99
O=C(CCOCCOCCOCCOCCNC(=O)CCc1ccc2n1[B-](F)(F)[N+]1=C(c3ccc[nH]3)C=CC1=C2)NCCCN1CCN(C2=Nc3ccccc3Oc3ccc(Cl)cc32)CC1 [Loxapine-a-2-NB590] | 1.03 | 0.95 | 1.00 | 0.89 | –
COc1ccccc1N1CCN(CCCCN2C(=O)c3ccc(CNC(=O)CCOCCOCCOCCOCCNC(=O)CCc4ccc5n4[B-](F)(F)[N+]4=C(c6ccc[nH]6)C=CC4=C5)cc3C2=O)CC1 [NAN-190-2-NB590] | 1.02 | – | 0.97 | – | –
COc1ccccc1N1CCN(CCCCN2C(=O)c3ccc(CNC(=O)CCOCCNC(=O)c4ccc(CNC(=O)CCc5ccc6n5[B-](F)(F)[N+]5=C(c7ccc[nH]7)C=CC5=C6)cc4)cc3C2=O)CC1 [NAN-190-3-NB590] | 0.89 | 1.16 | 1.08 | 1.41 | –
O=C(CCc1ccc2n1[B-](F)(F)[N+]1=C(c3ccc[nH]3)C=CC1=C2)NCc1ccc(C(=O)NCCOCCC(=O)N[C@@H]2CC[C@@]3(O)[C@H]4Cc5ccc(O)c6c5[C@@]3(CCN4CC3CC3)[C@H]2O6)cc1 [Naltrexone-3-NB590] | 2.19 | 1.53 | 1.54 | 0.99 | –
Cc1cc2c(s1)Nc1ccccc1N=C2N1CCN(CCCNC(=O)CCOCCOCCOCCOCCNC(=O)CCc2ccc3n2[B-](F)(F)[N+]2=C(c4ccc[nH]4)C=CC2=C3)CC1 [Olanzapine-a-2-NB590] | 0.92 | 1.16 | 1.02 | 0.47 | –
O=C(CCc1ccc2n1[B-](F)(F)[N+]1=C(c3ccc[nH]3)C=CC1=C2)NCc1ccc(C(=O)NCCOCCOCCNCC(O)COc2cccc3ccccc23)cc1 (stereo not drawn) [Propranolol-3-NB590] | – | – | – | – | NanoBRET Fold Response (OPRK1; 0.1μM): 1.08; NanoBRET Fold Response (OPRK1; 1μM): 1.02; NanoBRET Fold Response (OPRL1; 0.1μM): 0.96; NanoBRET Fold Response (OPRL1; 1μM): 1.01
O=C(CCc1ccc2n1[B-](F)(F)[N+]1=C(c3ccc[nH]3)C=CC1=C2)NCCOCCOCCNC(=O)OCCOCCN1CCN(C2=Nc3ccccc3Sc3ccccc32)CC1 [Quetiapine-a-2-NB590] | 0.94 | 0.97 | 0.90 | 1.00 | –
Cc1nc2n(c(=O)c1CCN1CCC(c3noc4cc(F)ccc34)CC1)CCCC2OC(=O)NCCOCCOCCOCCOCCNC(=O)CCc1ccc2n1[B-](F)(F)[N+]1=C(c3ccc[nH]3)C=CC1=C2 (stereo not drawn) [Risperidone-2-NB590] | 0.96 | 0.99 | 0.97 | 0.96 | –
CC(C)N(CC[C@H](c1ccccc1)c1cc(CCNC(=O)CCOCCOCCOCCOCCNC(=O)CCc2ccc3n2[B-](F)(F)[N+]2=C(c4ccc[nH]4)C=CC2=C3)ccc1O)C(C)C [Tolterodine-2-NB590] | 1.12 | 0.95 | 1.07 | 0.90 | –
CC(C)N(CC[C@H](c1ccccc1)c1cc(CCNC(=O)c2ccc(CNC(=O)CCc3ccc4n3[B-](F)(F)[N+]3=C(c5ccc[nH]5)C=CC3=C4)cc2)ccc1O)C(C)C [Tolterodine-BZ-NB590] | 0.90 | 0.96 | 0.92 | 0.88 | –
